The supplement of paper PMC10307832

Columns and labels:
Assay in all cases: relative viability (nuclei count vs DMSO), 5 days (fraction); higher = more cells survive
[1] = compound: CS(=O)(=O)c1ccc(-c2cnc(N)c(C(=O)Nc3ccccc3)n2)cc1 [VE-821]
Summary of the method: (§1)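 Viability here means nuclei in treated wells divided by nuclei in vehicle wells, reported as the median across plates. Only plates with control CV below 25% and at least one doubling passed. Lung cancer cell lines in 1536-well plates were exposed to five √10-spaced library-drug doses for 5 days and counted from 4× Hoechst images in MetaXpress.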

[2] = compound: CS(=O)(=O)c1ccc(C(=O)Nc2ccc(Cl)c(-c3ccccn3)c2)c(Cl)c1 [Vismodegib]
Summary of the method: as §1

[3] = compound: N#CC[C@H](C1CCCC1)n1cc(-c2ncnc3[nH]ccc23)cn1 [Ruxolitinib]
Summary of the method: as §1

[4] = compound: CS(=O)(=O)c1ccc(C(=O)Nc2ccc(Cl)c(-c3ccccn3)c2)c(Cl)c1 [Vismodegib] + Cc1nc(Nc2ncc(C(=O)Nc3c(C)cccc3Cl)s2)cc(N2CCN(CCO)CC2)n1 [Dasatinib] (partner 0.075 µM)
Summary of the method: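 Lung cancer cell lines in 1536-well plates were dosed by pin tool the day after seeding, either with one drug alone or with a fixed anchor-drug dose plus five library-drug doses (not always all listed) in √10 steps. After 5 days, cells were fixed and their nuclei stained in one step (final 0.05% Triton X-100, 1% formaldehyde, 1 ug/ml Hoechst), then counted on 4× images. Relative viability is the nuclei count in treated wells divided by that in vehicle wells. Values are medians of duplicate plates.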

Row | Cell Line | relative viability ([1]; 0.08 µM) | relative viability ([1]; 0.253 µM) | relative viability ([1]; 0.8 µM) | relative viability ([1]; 2.53 µM) | relative viability ([1]; 8 µM) | relative viability ([2]; 0.08 µM) | relative viability ([2]; 0.253 µM) | relative viability ([2]; 0.8 µM) | relative viability ([2]; 2.53 µM) | relative viability ([2]; 8 µM) | relative viability ([3]; 0.08 µM) | relative viability ([3]; 0.253 µM) | relative viability ([3]; 0.8 µM) | relative viability ([3]; 2.53 µM) | relative viability ([3]; 8 µM) | relative viability ([4]; first compound 0.08 µM) | relative viability ([4]; first compound 0.253 µM) | relative viability ([4]; first compound 0.8 µM) | relative viability ([4]; first compound 2.53 µM) | relative viability ([4]; first compound 8 µM)
1 | 201T | 1.03 | 0.94 | 0.937 | 1.01 | 0.703 | 0.983 | 0.942 | 0.977 | 0.964 | 0.968 | 1.05 | 1.1 | 1.18 | 1.19 | 1.1 | 0.646 | 0.52 | 0.481 | 0.569 | 0.463
2 | A549 | 1.11 | 0.939 | 0.927 | 0.954 | 0.738 | 0.964 | 0.91 | 0.936 | 0.915 | 0.971 | 0.934 | 0.965 | 1.11 | 0.941 | 0.736 | – | – | – | – | –
3 | A-427 | 1.1 | 0.878 | 0.992 | 0.986 | 0.468 | 1 | 0.94 | 0.933 | 0.988 | 1.01 | 0.982 | 1.02 | 1.12 | 0.902 | 0.844 | 0.647 | 0.65 | 0.609 | 0.642 | 0.804
4 | ABC-1 | 1.09 | 0.882 | 0.907 | 1.03 | 0.749 | 0.963 | 0.854 | 0.96 | 0.81 | 0.988 | – | 1.01 | 1.11 | 0.882 | 0.782 | 0.584 | 0.415 | 0.527 | 0.527 | 0.582
5 | BEN | 0.977 | 1.01 | 0.849 | 1.03 | 0.885 | 1 | 1.02 | 0.891 | 0.926 | 1.02 | 0.992 | 0.938 | 1.14 | 0.965 | 1.07 | 0.385 | 0.399 | 0.337 | 0.315 | 0.296
6 | CAL-12T | 1.02 | 0.947 | 1.04 | 0.927 | 0.844 | 1.01 | 0.955 | 0.976 | 0.945 | 0.959 | 0.918 | 0.997 | 1.11 | 0.792 | 0.696 | 0.322 | 0.224 | 0.403 | 0.586 | 0.482
7 | COR-L23 | 1.12 | 0.953 | 1.15 | 1.11 | 0.866 | 0.981 | 0.933 | 1.03 | 1.02 | 1.05 | 1.07 | 0.995 | 1.09 | 0.981 | 0.785 | 0.507 | 0.455 | 0.543 | 0.452 | 0.533
8 | COR-L 105 | 0.782 | 0.811 | 0.776 | 0.794 | 0.574 | 0.968 | 0.817 | 0.959 | 0.961 | 0.96 | 0.76 | 0.863 | 0.914 | 0.824 | 0.695 | 0.288 | 0.303 | 0.422 | 0.339 | 0.357
9 | Calu-6 | 1.13 | 0.97 | 0.905 | 0.937 | 0.607 | 1.03 | 0.957 | 1.03 | 1.01 | 1.05 | 1.03 | 1.03 | 1.12 | 0.893 | 0.67 | – | – | – | – | –
